In patent publication US20100119483A1, “PEPTIDE VIRAL ENTRY INHIBITORS” (Schering Corporation, priority 2004, published 2010):
Where “and” joins values, the source holds several entries; their conditions need not be identical. Equal values may be shown once.

Assays:
HCVpp = test: Wash off study, HCVpp entry under conditions A-D at 37° C. or 4° C.; assay type: cell-based, hepatitis C virus; details: for luciferase units: 37° C.; for luciferase units observed in the entry assay: 4° C., listed as V-2b
Experimental: To identify if the peptides of the invention bind to the cells and therefore inhibit entry, anti-CD81 antibody or peptide (SEQ ID NO: 77) was tested at four conditions: • (A) peptide or anti-CD81 antibody was pre-incubated with cells and virus separately, cells were washed and virus together with peptide was added; • (B) peptide or anti-CD81 antibody was pre-incubated with virus only first and then virus together with peptide was added to the cells; • (C) peptide or anti-CD81 antibody was preincubated with cells only and washed off, and then virus was added; and • (D) same as C except that virus was washed off after 1 hour of incubation.
The majority of difference seen before the 4-hour time-point is in line with the model wherein most of the entry events occur during the first four hours (data not shown). As expected, the RLU signal was reduced at earlier time points and lead to higher variation of the assay. […] In anticipating similar phenomena might exist with the peptide, we applied the one hour virus incubation in the following studies. In tables 19-22, condition D was identical to condition C except that virus was removed after 1 hour of incubation. […] Anti-CD81 antibody binds to CD81 expressed on the cells and therefore blocks HCVpp entry.
The data in tables 19 and 20 were generated in assays conducted at 37° C. The date generated in tables 21 and 22 were generated in assays conducted at 4° C. The numbers in each table (19-22) represent the luciferase units observed in the entry assay under each indicated condition.

HCV pseudoparticles = test: HCV pseudoparticle (HCVpp) entry assay in Huh7 hepatoma cells, luciferase readout; assay type: cell-based, hepatitis C virus; details: for RLU units: HCVpp
Procedure, shortened: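 Huh7 cells were pre-treated with peptide for 1 h at 37 °C before exposure to HCV E1/E2-pseudotyped HIV luciferase particles made in 293T cells, followed by 72 h culture and luciferase readout. Peptides were tested at 10 points, 3-fold, from 100 ug/ml; particles lacking envelope served as non-specific entry control.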

[1] = peptide 0.0457 ug/ml, condition A
[2] = peptide 0.0457 ug/ml, condition B
[3] = peptide 0.0457 ug/ml, condition C
[4] = peptide 0.1372 ug/ml, condition A
[5] = peptide 0.1372 ug/ml, condition B
[6] = peptide 0.1372 ug/ml, condition C
[7] = peptide 0.4115 ug/ml, condition A
[8] = peptide 0.4115 ug/ml, condition B
[9] = peptide 0.4115 ug/ml, condition C
[10] = peptide 1.2346 ug/ml, condition A
[11] = peptide 1.2346 ug/ml, condition B
[12] = peptide 1.2346 ug/ml, condition C
[13] = peptide 3.7037 ug/ml, condition A
[14] = peptide 3.7037 ug/ml, condition B
[15] = peptide 3.7037 ug/ml, condition C
[16] = peptide 11.1111 ug/ml, condition A
[17] = peptide 11.1111 ug/ml, condition C
[18] = peptide 33.3333 ug/ml, condition A
[19] = peptide 33.3333 ug/ml, condition B
[20] = peptide 33.3333 ug/ml, condition C

V-S-F-A-I-K-W-E-Y-V-L-L-L-F-L-L [SEQ ID NO: 77]
luciferase units (HCVpp; peptide 0.0046 ug/ml (two lines), condition A): 74772 luciferase units and 76125 luciferase units and 57485 luciferase units and 58523 luciferase units | luciferase units (HCVpp; peptide 0.0046 ug/ml (two lines), condition B): 65028 luciferase units and 60343 luciferase units and 57349 luciferase units and 51858 luciferase units | luciferase units (HCVpp; peptide 0.0046 ug/ml (two lines), condition C): 40529 luciferase units and 45271 luciferase units and 37116 luciferase units and 32831 luciferase units | luciferase units (HCVpp; [1]): 50460 luciferase units and 53231 luciferase units | luciferase units (HCVpp; [2]): 47929 luciferase units and 53377 luciferase units | luciferase units (HCVpp; [3]): 36956 luciferase units and 46680 luciferase units | luciferase units (HCVpp; peptide 0.0457 ug/ml, condition D): 3531 luciferase units and 2785 luciferase units | luciferase units (HCVpp; [4]): 44159 luciferase units and 41959 luciferase units | luciferase units (HCVpp; [5]): 43468 luciferase units and 36136 luciferase units | luciferase units (HCVpp; [6]): 34241 luciferase units and 44163 luciferase units | luciferase units (HCVpp; peptide 0.1372 ug/ml, condition D): 2443 luciferase units and 4834 luciferase units | luciferase units (HCVpp; [7]): 28106 luciferase units and 25559 luciferase units | luciferase units (HCVpp; [8]): 26979 luciferase units and 31819 luciferase units | luciferase units (HCVpp; [9]): 40225 luciferase units and 43467 luciferase units | luciferase units (HCVpp; peptide 0.4115 ug/ml, condition D): 3257 luciferase units and 2555 luciferase units | luciferase units (HCVpp; [10]): 21301 luciferase units and 21733 luciferase units | luciferase units (HCVpp; [11]): 25204 luciferase units and 14452 luciferase units | luciferase units (HCVpp; [12]): 36450 luciferase units and 40467 luciferase units | luciferase units (HCVpp; [13]): 15025 luciferase units and 10613 luciferase units | luciferase units (HCVpp; [14]): 15213 luciferase units and 12233 luciferase units | luciferase units (HCVpp; [15]): 31857 luciferase units and 32265 luciferase units | luciferase units (HCVpp; peptide 3.7037 ug/ml, condition D): 2974 luciferase units and 3707 luciferase units | luciferase units (HCVpp; [16]): 12402 luciferase units and 6768 luciferase units | luciferase units (HCVpp; peptide 11.1111 ug/ml, condition B): 10212 luciferase units and 6902 luciferase units | luciferase units (HCVpp; [17]): 28818 luciferase units and 33022 luciferase units | luciferase units (HCVpp; peptide 11.1111 ug/ml, condition D): 3302 luciferase units and 3259 luciferase units | luciferase units (HCVpp; [18]): 6467 luciferase units and 6356 luciferase units | luciferase units (HCVpp; [19]): 7146 luciferase units and 4501 luciferase units | luciferase units (HCVpp; [20]): 23383 luciferase units and 19309 luciferase units | luciferase units (HCVpp; peptide 33.3333 ug/ml, condition D): 2351 luciferase units and 2058 luciferase units | luciferase units (HCVpp; peptide 100.0000 ug/ml, condition A (pre-incubated with cells and virus separately, cells washed)): 9216 luciferase units and 7419 luciferase units | luciferase units (HCVpp; peptide 100.0000 ug/ml, condition B (pre-incubated with virus only)): 8074 luciferase units and 4093 luciferase units | luciferase units (HCVpp; peptide 100.0000 ug/ml, condition C (pre-incubated with cells only, washed off)): 19088 luciferase units and 14073 luciferase units | luciferase units (HCVpp; peptide 100.0000 ug/ml, condition D (as C, virus washed off after 1 hour)): 780 luciferase units and 1531 luciferase units | luciferase units observed in the entry assay (HCVpp; peptide 0.0046 ug/ml, condition A): 22435 luciferase units and 18765 luciferase units and 17613 luciferase units and 22306 luciferase units | luciferase units observed in the entry assay (HCVpp; peptide 0.0046 ug/ml, condition B): 26860 luciferase units and 23215 luciferase units and 23633 luciferase units and 21213 luciferase units | luciferase units observed in the entry assay (HCVpp; peptide 0.0046 ug/ml, condition C): 13903 luciferase units and 13795 luciferase units and 14095 luciferase units and 10535 luciferase units | luciferase units observed in the entry assay (HCVpp; [1]): 7498 luciferase units and 7299 luciferase units | luciferase units observed in the entry assay (HCVpp; [2]): 6703 luciferase units and 9954 luciferase units | luciferase units observed in the entry assay (HCVpp; [3]): 16101 luciferase units and 13757 luciferase units | luciferase units observed in the entry assay (HCVpp; [4]): 5745 luciferase units and 7826 luciferase units | luciferase units observed in the entry assay (HCVpp; [5]): 7670 luciferase units and 6880 luciferase units | luciferase units observed in the entry assay (HCVpp; [6]): 9444 luciferase units and 10124 luciferase units | luciferase units observed in the entry assay (HCVpp; [7]): 5517 luciferase units and 5574 luciferase units | luciferase units observed in the entry assay (HCVpp; [8]): 4724 luciferase units and 3648 luciferase units | luciferase units observed in the entry assay (HCVpp; [9]): 9027 luciferase units and 11381 luciferase units | luciferase units observed in the entry assay (HCVpp; [10]): 3584 luciferase units and 5974 luciferase units | luciferase units observed in the entry assay (HCVpp; [11]): 5542 luciferase units and 4382 luciferase units | luciferase units observed in the entry assay (HCVpp; [12]): 6131 luciferase units and 6853 luciferase units | luciferase units observed in the entry assay (HCVpp; [13]): 2824 luciferase units and 3255 luciferase units | luciferase units observed in the entry assay (HCVpp; [14]): 3059 luciferase units and 3424 luciferase units | luciferase units observed in the entry assay (HCVpp; [15]): 9414 luciferase units and 8570 luciferase units | luciferase units observed in the entry assay (HCVpp; [16]): 2833 luciferase units and 2954 luciferase units | luciferase units observed in the entry assay (HCVpp; [17]): 7352 luciferase units and 4725 luciferase units | luciferase units observed in the entry assay (HCVpp; [18]): 1677 luciferase units and 2383 luciferase units | luciferase units observed in the entry assay (HCVpp; [19]): 2900 luciferase units and 1914 luciferase units | luciferase units observed in the entry assay (HCVpp; [20]): 8294 luciferase units and 8104 luciferase units | luciferase units observed in the entry assay (HCVpp; peptide 100 ug/ml, condition A): 1924 luciferase units and 1845 luciferase units | luciferase units observed in the entry assay (HCVpp; peptide 100 ug/ml, condition C): 5118 luciferase units and 8821 luciferase units | inhibition compared to anti-CD81 antibody in the wash-off experiment (HCVpp; pre-incubated with cells at 37° C. and 4° C.): more inhibition | inhibition at condition C (HCVpp; pre-incubated with cells only and washed off, then virus added): little inhibition | RLU units (HCV pseudoparticles; peptide conc. 0.091515 log ug/ml, 1st and 2nd trial): 1044 RLU and 833 RLU | RLU units (HCV pseudoparticles; peptide conc. 0.568636 log ug/ml, 1st and 2nd trial): 544 RLU and 500 RLU | RLU units (HCV pseudoparticles; peptide conc. 2 log ug/ml, 1st and 2nd trial): 11 RLU and 10 RLU | RLU units (HCV pseudoparticles; peptide conc. not given, 1st trial): 1494 RLU | RLU units (HCV pseudoparticles; peptide conc. −0.38561 log ug/ml, 1st and 2nd trial): 1279 RLU and 1283 RLU | RLU units (HCV pseudoparticles; peptide conc. −0.86273 log ug/ml, 1st and 2nd trial): 1866 RLU and 1762 RLU | RLU units (HCV pseudoparticles; peptide conc. −1.33985 log ug/ml (three lines), 1st and 2nd trial): 2564 RLU and 2703 RLU and 2998 RLU and 3512 RLU and 2090 RLU and 3359 RLU | HCVpp % inh (HCV pseudoparticles; peptide library screen, first screened at 100 ug/ml, cell entry inhibition vs uninhibited control): 96%
